# Assay results: ChEMBL document CHEMBL5226325, “Optimization of a Screening Hit toward M2912, an Oral Tankyrase Inhibitor with Antitumor Activity in Colorectal Cancer Models” (J Med Chem, 2021)
# Activity calls are given as the source filed them. The rule behind the calls is not given here.
# Tests used:
# [1] = Volume of distribution at steady state in rat; type: ADME; conditions: in vivo, read-out: Vdss
# CYP450 = CYP450 (Homo sapiens, UniProt P04798+P05177+P05181+P08684+P10632+P10635+P11509+P11712+P13584+P20813+P20815+P20853+P24462+P24903+P33260+P33261+P51589+P78329+P98187+Q02928+Q08477+Q16678+Q16696+Q5TCH4+Q6VVX0+Q7Z449+Q8TAV3+Q96SQ9+Q9HB55); test: Inhibition of CYP450 (unknown origin); type: ADME, protein assay
# HCT-15 = test: Cytotoxicity against human HCT-15 cells assessed as reduction in cell growth at 0.01 to 10 uM incubated for 14 days by resazurin dye based assay; type: functional; conditions: dose 0.01-10 µM, time 14.0 day
# [2] = Toxicity in CB17-SCID mouse xenografted with human COLO 320 cells assessed as drug tolerance at 15 mg/kg, po administered twice daily via gavage for 20 days; type: organism-based; conditions: in vivo, 480 h, time 20 day
# [3] = biological target: Protein mono-ADP-ribosyltransferase PARP3 (Homo sapiens, UniProt Q9Y6F1); test: Inhibition of N-terminal GST-fused human recombinant PARP3 (2 to 540 residues) expressed in Sf9 insect cells by chemiluminescence assay
# [4] = In vivo inhibition of Wnt pathway in Hsd athymic nude mouse xenografted with human DLD1 cells assessed as increase in tankyrase protein level in tumor at 10 to 30 mg/kg, po administered as single dose and measured after 18 hrs; type: functional, organism-based; conditions: DLD-1, dose 10-30 mg/kg
# SW-620 = test: Cytotoxicity against human SW620 cells assessed as reduction in cell growth at 0.01 to 10 uM incubated for 14 days by resazurin dye based assay; type: functional; conditions: dose 0.01-10 µM, time 14.0 day
# [5] = Toxicity in CB17-SCID mouse xenografted with human COLO 320 cells assessed as reduction in body weight at 20 mg/kg, po administered twice daily via gavage for 20 days and measured twice weekly; type: organism-based; conditions: in vivo, 480 h, time 20 day
# [6] = Unbound fraction in monkey plasma; type: ADME, cell-free, Macaca mulatta; conditions: rhesus monkey
# [7] = biological target: Poly [ADP-ribose] polymerase 1 (Homo sapiens, UniProt P09874); test: Inhibition of N-terminal GST-tagged human recombinant PARP1 (2 to 1014 residues) expressed in Sf9 insect cells by chemiluminescence assay
# Poly [ADP-ribose] polymerase 1, sequence (P09874 whole entry, the tested form may be a part): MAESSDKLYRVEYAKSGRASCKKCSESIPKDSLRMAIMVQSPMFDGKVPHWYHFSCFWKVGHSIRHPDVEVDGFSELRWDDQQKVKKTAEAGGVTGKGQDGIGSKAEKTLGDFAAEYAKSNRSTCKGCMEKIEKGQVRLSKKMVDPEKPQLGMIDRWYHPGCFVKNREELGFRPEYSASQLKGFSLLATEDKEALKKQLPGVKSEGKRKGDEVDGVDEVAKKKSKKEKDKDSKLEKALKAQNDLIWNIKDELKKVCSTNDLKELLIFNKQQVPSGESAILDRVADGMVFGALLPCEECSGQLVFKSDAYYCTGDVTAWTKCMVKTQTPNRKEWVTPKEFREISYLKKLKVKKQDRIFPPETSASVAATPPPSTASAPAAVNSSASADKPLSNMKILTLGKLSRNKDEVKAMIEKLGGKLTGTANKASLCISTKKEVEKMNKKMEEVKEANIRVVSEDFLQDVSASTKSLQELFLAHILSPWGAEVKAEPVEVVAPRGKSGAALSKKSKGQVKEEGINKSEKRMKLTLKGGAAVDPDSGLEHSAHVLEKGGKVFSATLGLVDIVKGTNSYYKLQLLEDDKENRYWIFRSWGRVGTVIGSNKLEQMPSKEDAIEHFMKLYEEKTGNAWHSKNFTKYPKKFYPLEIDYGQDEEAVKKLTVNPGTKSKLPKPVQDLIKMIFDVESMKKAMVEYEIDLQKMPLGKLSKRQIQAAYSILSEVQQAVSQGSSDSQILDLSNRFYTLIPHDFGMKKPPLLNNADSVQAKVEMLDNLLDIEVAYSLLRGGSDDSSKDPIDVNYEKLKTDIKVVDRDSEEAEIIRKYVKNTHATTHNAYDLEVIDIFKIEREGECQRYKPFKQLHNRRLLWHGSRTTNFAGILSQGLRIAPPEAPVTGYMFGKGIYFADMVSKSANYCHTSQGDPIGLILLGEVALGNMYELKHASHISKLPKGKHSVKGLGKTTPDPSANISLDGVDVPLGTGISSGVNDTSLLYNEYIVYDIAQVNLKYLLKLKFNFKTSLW
# [8] = Hepatic blood flow in rat; type: ADME
# [9] = biological target: Protein mono-ADP-ribosyltransferase TIPARP (Homo sapiens, UniProt Q7Z3E1); test: Inhibition of N-terminal FLAG-tagged human recombinant PARP7 (400 to 657 residues) expressed in Sf9 insect cells by chemiluminescence assay
# [10] = Hepatic blood flow in monkey; type: ADME, Macaca mulatta; conditions: rhesus monkey
# COLO 320 [11] = test: Cytotoxicity against human COLO 320 cells assessed as reduction in cell growth incubated for 14 days by resazurin dye based assay; type: functional; conditions: time 14.0 day
# HT55 [12] = test: Antitumor activity against human HT55 cells xenografted in CD-1 nude mouse assessed as tumor growth inhibition at 20 mg/kg, po, administered twice daily via gavage and measured twice weekly; type: functional, organism-based
# [13] = biological target: Poly [ADP-ribose] polymerase tankyrase-1 (Homo sapiens) (UniProt O95271); test: Inhibition of tankyrase-mediated auto-PARsylation in human DLD-1 cells assessed as increase in tankyrase accumulation incubated for 24 hrs; type: cell-based
# Poly [ADP-ribose] polymerase tankyrase-1 (Homo sapiens), sequence (O95271 whole entry): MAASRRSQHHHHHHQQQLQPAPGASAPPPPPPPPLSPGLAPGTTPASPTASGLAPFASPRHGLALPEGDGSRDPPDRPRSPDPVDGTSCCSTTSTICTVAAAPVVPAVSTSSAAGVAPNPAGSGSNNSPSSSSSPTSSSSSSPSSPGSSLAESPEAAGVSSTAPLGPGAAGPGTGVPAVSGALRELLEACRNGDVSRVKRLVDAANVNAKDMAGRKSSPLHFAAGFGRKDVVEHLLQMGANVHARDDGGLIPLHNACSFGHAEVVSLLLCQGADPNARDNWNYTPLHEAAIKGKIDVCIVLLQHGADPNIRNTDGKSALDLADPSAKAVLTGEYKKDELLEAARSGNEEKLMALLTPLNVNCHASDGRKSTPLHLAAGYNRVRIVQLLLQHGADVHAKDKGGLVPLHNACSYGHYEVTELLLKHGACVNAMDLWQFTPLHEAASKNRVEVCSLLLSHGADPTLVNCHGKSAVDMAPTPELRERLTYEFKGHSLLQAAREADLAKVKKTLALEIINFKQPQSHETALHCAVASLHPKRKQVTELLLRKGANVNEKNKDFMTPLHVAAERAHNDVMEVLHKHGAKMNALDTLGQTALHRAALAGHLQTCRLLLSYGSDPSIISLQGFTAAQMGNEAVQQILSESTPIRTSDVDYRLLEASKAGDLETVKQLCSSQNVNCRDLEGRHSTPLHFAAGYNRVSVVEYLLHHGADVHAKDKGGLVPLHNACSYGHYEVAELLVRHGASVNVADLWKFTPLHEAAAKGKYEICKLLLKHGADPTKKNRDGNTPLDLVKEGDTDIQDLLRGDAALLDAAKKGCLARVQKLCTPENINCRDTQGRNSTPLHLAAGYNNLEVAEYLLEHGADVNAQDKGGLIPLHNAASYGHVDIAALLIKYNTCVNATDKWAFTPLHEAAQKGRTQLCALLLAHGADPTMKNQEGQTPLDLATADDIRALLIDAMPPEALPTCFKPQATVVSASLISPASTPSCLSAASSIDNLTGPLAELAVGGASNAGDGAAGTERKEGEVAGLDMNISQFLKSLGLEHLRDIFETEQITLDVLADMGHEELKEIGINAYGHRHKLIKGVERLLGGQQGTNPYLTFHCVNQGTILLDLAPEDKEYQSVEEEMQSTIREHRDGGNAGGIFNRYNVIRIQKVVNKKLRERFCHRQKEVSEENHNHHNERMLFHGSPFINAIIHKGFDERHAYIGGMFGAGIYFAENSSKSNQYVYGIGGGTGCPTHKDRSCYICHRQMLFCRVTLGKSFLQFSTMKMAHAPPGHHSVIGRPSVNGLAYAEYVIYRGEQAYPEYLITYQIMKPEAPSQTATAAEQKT
# [14] = In vivo inhibition of Wnt pathway in Hsd athymic nude mouse xenografted with human DLD1 cells assessed as increase in axin2 protein level in tumor at 10 to 30 mg/kg, po administered as single dose and measured after 18 hrs; type: functional, organism-based; conditions: DLD-1, dose 10-30 mg/kg
# [15] = Oral bioavailability in dog; type: ADME, organism-based, Canis lupus familiaris; conditions: in vivo
# [16] = Oral bioavailability in monkey; type: ADME, organism-based, Macaca mulatta; conditions: rhesus monkey, in vivo
# [17] = Half life in monkey; type: ADME, Macaca mulatta; conditions: rhesus monkey, in vivo
# HT55 [18] = test: Cytotoxicity against human HT55 cells assessed as reduction in cell growth incubated for 14 days by resazurin dye based assay; type: functional; conditions: time 14.0 day
# DLD-1 = test: Cytotoxicity against human DLD-1 cells assessed as reduction in cell growth at 0.01 to 10 uM incubated for 14 days by resazurin dye based assay; type: functional; conditions: dose 0.01-10 µM, time 14.0 day
# [19] = Hepatic blood flow in human; type: ADME
# [20] = biological target: Protein mono-ADP-ribosyltransferase PARP10 (Homo sapiens, UniProt Q53GL7); test: Inhibition of human PARP10 by chemiluminescence assay
# Protein mono-ADP-ribosyltransferase PARP10, sequence (Q53GL7 whole entry): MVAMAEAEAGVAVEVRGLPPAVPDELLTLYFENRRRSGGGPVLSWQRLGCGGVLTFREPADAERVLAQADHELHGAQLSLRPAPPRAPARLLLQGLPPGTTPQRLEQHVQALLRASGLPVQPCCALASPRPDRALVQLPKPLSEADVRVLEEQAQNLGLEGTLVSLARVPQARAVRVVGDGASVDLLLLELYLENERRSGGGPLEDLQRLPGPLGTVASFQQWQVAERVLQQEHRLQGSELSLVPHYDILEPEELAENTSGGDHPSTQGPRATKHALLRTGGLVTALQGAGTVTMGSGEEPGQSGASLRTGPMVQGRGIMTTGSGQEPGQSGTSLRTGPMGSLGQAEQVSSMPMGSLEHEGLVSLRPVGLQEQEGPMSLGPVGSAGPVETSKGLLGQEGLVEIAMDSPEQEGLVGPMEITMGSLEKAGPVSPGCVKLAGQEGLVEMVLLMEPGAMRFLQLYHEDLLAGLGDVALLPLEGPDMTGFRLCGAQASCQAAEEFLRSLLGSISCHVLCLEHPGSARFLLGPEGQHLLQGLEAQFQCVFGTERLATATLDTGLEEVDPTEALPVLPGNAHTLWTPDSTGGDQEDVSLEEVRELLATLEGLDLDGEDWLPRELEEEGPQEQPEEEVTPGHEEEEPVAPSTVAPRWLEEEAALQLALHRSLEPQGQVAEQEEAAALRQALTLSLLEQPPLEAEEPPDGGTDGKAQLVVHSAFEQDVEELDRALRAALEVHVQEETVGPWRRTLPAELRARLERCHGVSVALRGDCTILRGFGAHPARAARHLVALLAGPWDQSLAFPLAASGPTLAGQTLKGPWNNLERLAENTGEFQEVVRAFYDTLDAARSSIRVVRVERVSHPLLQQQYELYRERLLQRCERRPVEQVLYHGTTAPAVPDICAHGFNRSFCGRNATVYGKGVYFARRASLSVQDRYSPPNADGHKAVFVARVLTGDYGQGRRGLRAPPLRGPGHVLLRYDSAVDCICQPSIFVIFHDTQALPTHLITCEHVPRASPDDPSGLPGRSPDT
# [21] = Volume of distribution at steady state in mouse; type: ADME, organism-based; conditions: in vivo, read-out: Vdss
# [22] = biological target: Protein mono-ADP-ribosyltransferase PARP8 (Homo sapiens, UniProt Q8N3A8); test: Inhibition of human PARP8 by chemiluminescence assay
# Protein mono-ADP-ribosyltransferase PARP8, sequence (Q8N3A8 whole entry, the tested form may be a part): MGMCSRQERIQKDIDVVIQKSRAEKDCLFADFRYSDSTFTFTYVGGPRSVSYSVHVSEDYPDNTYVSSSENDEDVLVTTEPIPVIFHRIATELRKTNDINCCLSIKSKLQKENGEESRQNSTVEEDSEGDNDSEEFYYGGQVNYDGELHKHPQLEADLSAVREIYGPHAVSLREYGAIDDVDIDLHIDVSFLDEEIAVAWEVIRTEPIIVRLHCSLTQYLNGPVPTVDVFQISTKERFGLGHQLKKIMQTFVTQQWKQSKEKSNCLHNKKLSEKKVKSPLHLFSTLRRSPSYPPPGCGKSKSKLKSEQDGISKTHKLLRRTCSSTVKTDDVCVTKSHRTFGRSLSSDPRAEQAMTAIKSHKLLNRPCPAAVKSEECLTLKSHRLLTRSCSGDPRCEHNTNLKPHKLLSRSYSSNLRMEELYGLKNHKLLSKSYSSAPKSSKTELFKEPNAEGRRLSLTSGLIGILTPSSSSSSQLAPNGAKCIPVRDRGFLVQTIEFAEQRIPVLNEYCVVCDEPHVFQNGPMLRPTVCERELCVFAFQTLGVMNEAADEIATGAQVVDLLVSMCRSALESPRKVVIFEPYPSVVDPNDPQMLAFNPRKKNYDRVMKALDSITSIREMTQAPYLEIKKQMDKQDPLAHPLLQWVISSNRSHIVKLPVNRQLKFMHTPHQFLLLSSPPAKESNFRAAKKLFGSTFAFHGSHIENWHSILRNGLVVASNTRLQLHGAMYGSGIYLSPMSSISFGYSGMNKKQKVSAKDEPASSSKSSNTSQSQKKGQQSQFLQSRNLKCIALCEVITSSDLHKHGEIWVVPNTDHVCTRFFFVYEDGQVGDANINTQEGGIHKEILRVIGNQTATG
# [23] = biological target: Protein mono-ADP-ribosyltransferase PARP15 (Homo sapiens, UniProt Q460N3); test: Inhibition of N-terminal GST-tagged human recombinant PARP15 (221 to 444 residues) expressed in Escherichia coli by chemiluminescence assay
# Protein mono-ADP-ribosyltransferase PARP15, sequence (Q460N3 whole entry, looked up, the tested form may be a part): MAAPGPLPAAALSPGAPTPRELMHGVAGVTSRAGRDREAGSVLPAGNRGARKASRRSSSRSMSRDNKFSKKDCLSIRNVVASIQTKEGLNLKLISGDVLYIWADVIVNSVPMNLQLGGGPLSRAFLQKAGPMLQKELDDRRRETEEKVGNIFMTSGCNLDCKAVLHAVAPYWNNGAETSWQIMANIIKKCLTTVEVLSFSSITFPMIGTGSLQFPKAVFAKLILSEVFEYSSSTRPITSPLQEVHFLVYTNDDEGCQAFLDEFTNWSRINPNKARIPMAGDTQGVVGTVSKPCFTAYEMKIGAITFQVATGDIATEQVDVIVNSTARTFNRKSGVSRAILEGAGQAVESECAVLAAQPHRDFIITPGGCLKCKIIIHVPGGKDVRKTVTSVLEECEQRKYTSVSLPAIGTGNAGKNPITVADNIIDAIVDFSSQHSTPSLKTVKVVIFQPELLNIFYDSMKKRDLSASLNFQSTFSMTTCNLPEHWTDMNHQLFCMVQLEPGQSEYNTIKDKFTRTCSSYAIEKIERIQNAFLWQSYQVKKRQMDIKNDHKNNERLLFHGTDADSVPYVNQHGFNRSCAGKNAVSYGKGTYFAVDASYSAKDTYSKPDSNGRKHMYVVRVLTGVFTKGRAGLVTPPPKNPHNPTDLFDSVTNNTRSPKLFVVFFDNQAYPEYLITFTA
# [24] = Toxicity in […] xenografted with human HT55 cells assessed as reduction in body weight at 20 mg/kg, po administered twice daily via gavage for 20 days and measured twice weekly; type: organism-based; conditions: in vivo, 480 h, time 20 day
# [25] = Hepatic blood flow in dog; type: ADME, Canis lupus familiaris
# [26] = Toxicity in CD-1 nude mouse xenografted with human HT55 cells assessed as drug tolerance at 15 mg/kg, po administered twice daily via gavage for 20 days; type: organism-based; conditions: in vivo, 480 h, time 20 day
# [27] = Toxicity in mouse assessed as histopathological changes in gastrointestinal tract at 50 mg/kg, po administered twice daily via gavage; type: organism-based; conditions: in vivo
# COLO 320 [28] = test: Antitumor activity against human COLO 320 cells xenografted in CB17-SCID mouse assessed as tumor growth inhibition at 20 mg/kg, po, administered twice daily via gavage and measured twice weekly; type: functional, organism-based
# [29] = biological target: Protein mono-ADP-ribosyltransferase PARP11 (Homo sapiens, UniProt Q9NR21); test: Inhibition of N-terminal GST-tagged/C-terminal 6xHis-tagged human recombinant PARP11 (8 to 338 residues) expressed in Sf9 insect cells by chemiluminescence assay
# [30] = Oral bioavailability in mouse; type: ADME, organism-based; conditions: in vivo
# [31] = Unbound fraction in rat plasma; type: ADME, cell-free
# [32] = In vivo inhibition of Wnt pathway in Hsd athymic nude mouse xenografted with human DLD1 cells assessed as reduction in beta-catenin level in tumor at 10 to 30 mg/kg, po administered as single dose and measured after 8 hrs; type: functional, organism-based; conditions: DLD-1, dose 10-30 mg/kg
# [33] = Half life in rat; type: ADME; conditions: in vivo
compound,measurement,setting,value
Cc1ccc2c(=O)[nH]c(-c3ccc(C(C)(C)O)cc3)cn12,Vd,[1],0.91 L/kg
same,IC50,CYP450,> 50000 nM
same,Activity,HCT-15,inactive
same,Activity,[2],Non-Toxic
same,IC50,[3],110 nM
same,inhibition,[4],inactive
same,Activity,SW-620,inactive
same,Activity,[5],Non-Toxic
same,fraction unbound,[6],0.21
same,IC50,[7],140 nM
same,QH,[8],56%
same,IC50,[9],330 nM
same,QH,[10],99%
same,Activity,COLO 320 [11],Dose-Dependent Effect
same,Activity,HT55 [12],Active
same,inhibition,[13],Active
same,inhibition,[14],inactive
same,bioavailability,[15],37%
same,bioavailability,[16],6.7%
same,half-life,[17],60.6 min
same,Activity,HT55 [18],Dose-Dependent Effect
same,Activity,DLD-1,inactive
same,QH,[19],17%
same,IC50,[20],2900 nM
same,Vd,[21],2.43 L/kg
same,IC50,[22],1300 nM
same,IC50,[23],> 10000 nM
same,Activity,[24],Non-Toxic
same,QH,[25],130%
same,Activity,[26],Non-Toxic
same,Activity,[27],Toxic
same,Activity,COLO 320 [28],Active
same,IC50,[29],67 nM
same,bioavailability,[30],77%
same,fraction unbound,[31],0.13
same,inhibition,[32],Active
same,half-life,[33],20.4 min
